Key:
[1] = Crystal form conversion test of crystalline adefovir dipivoxil (Experimental Example 1, X-ray diffraction); format: physicochemical; conditions: overall conclusion: 40 °C, relative humidity 75%, 3 days, then drying at 60 °C
[2] = pH 2.0; cited from earlier work

| Structure (SMILES) | crystal form conversion depending on storage conditions [1] | solubility class (BCS) [2] |
| --- | --- | --- |
| CC(C)(C)C(=O)OCOP(=O)(COCCn1cnc2c(N)ncnc21)OCOC(=O)C(C)(C)C [신규결정형] | 결정형이 전환 | – |
| CC(C)(C)C(=O)OCOP(=O)(COCCn1cnc2c(N)ncnc21)OCOC(=O)C(C)(C)C [아데포비어 디피복실, 9-[2-[[{bis(pivaloyloxy)-methoxy}phosphinyl]methoxy]ethyl]adenine] | – | 높은 용해도(High solubility) |

— KR20100138114A, “안정성이 향상된 무정형 아데포비어 디피복실 고체분산체 및 이의 제조방법” (대원제약주식회사, priority 2009, dated 2010)
